Patent US20240400555A1 (Initial Therapeutics, Inc., priority 2023, published 2024)

system: HCT-116 Firefly-luciferase reporter cells; experiment: Cellular c-MYC Reporter Assay; assay type: cell-based; details: Homo sapiens; untitled table following Table 8a; HCT-116 Firefly-luciferase reporter cells, 24 h; read-out: pIC50 (converted)
Outline: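 Compound exposure lasted 24 h at 37 °C, 5% CO2, in complete McCoy's 5A medium containing 0.2% DMSO, beginning 4–6 h post-seeding (5e4 cells/mL). Firefly luciferase signal measured by luminescence after 10 min ONE-Glo development at room temperature.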

IC50 | Structure (SMILES)
661 nM | COC(=O)c1cccnc1N(C(=O)c1ccc(-n2nnc3cccnc32)cc1F)[C@@H]1CCCNC1 [Example 167, methyl (R)-2-(4-(3H-[1,2,3]triazolo[4,5-b]pyridin-3-yl)-2-fluoro-N-(piperidin-3-yl)benzamido)nicotinate]
776 nM | O=C(c1ccc(-n2nnc3cccnc32)cc1F)N(c1nccc2ccc(C#CCO)cc12)[C@@H]1CCCNC1 [Example 103, (R)-4-(3H-[1,2,3]triazolo[4,5-b]pyridin-3-yl)-2-fluoro-N-(7-(3-hydroxyprop-1-yn-1-yl)isoquinolin-1-yl)-N-(piperidin-3-yl)benzamide]
1020 nM | O=C(c1ccc(-n2nnc3cccnc32)cc1F)N(c1nccc2ccc(-c3cccnc3)cc12)[C@@H]1CCCNC1 [Example 151, (R)-4-(3H-[1,2,3]triazolo[4,5-b]pyridin-3-yl)-2-fluoro-N-(piperidin-3-yl)-N-(7-(pyridin-3-yl)isoquinolin-1-yl)benzamide]
1580 nM | Cc1cccc2ccnc(N(C(=O)c3ccc(Nc4ccc[nH]c4=O)cc3F)[C@@H]3CCCNC3)c12 [Example 132, (R)-2-fluoro-N-(8-methylisoquinolin-1-yl)-4-((2-oxo-1,2-dihydropyridin-3-yl)amino)-N-(piperidin-3-yl)benzamide]
4170 nM | Cc1cccc2ccnc(N(C(=O)N3CC=C(c4noc5cc(F)ccc45)CC3)[C@@H]3CCCNC3)c12 [Example 257, (R)-4-(6-fluorobenzo[d]isoxazol-3-yl)-N-(8-methylisoquinolin-1-yl)-N-(piperidin-3-yl)-3,6-dihydropyridine-1(2H)-carboxamide]
3800 nM | Cc1cccc2ccnc(N(C(=O)c3ccc(Nc4ncccc4N)cc3F)[C@@H]3CCCNC3)c12 [Example 274, (R)-4-((3-aminopyridin-2-yl)amino)-2-fluoro-N-(8-methylisoquinolin-1-yl)-N-(piperidin-3-yl)benzamide]
8910 nM | O=C(c1ccc(-n2nnc3cccnc32)cc1F)N(c1ncccc1/C=C/CCO)[C@@H]1CCCNC1 [Example 104, 2-fluoro-N-[3-[(E)-4-hydroxybut-1-enyl]-2-pyridyl]-N-[(3R)-3-piperidyl]-4-(triazolo[4,5-b]pyridin-3-yl)benzamide]
1200 nM | Cc1ccnc(N(C(=O)c2ccc(-n3nnc4cccnc43)cc2F)[C@@H]2CCCNC2)c1Cl [Example 284, (R)-4-(3H-[1,2,3]triazolo[4,5-b]pyridin-3-yl)-N-(3-chloro-4-methylpyridin-2-yl)-2-fluoro-N-(piperidin-3-yl)benzamide]
1100 nM | O=C(c1ccc(-n2nnc3cccnc32)cc1F)N(c1ncccc1-c1cc[nH]n1)[C@@H]1CCCNC1 [Example 136, (R)—N-(3-(1H-pyrazol-3-yl)pyridin-2-yl)-4-(3H-[1,2,3]triazolo[4,5-b]pyridin-3-yl)-2-fluoro-N-(piperidin-3-yl)benzamide]
813 nM | Cc1cccc2ccnc(N(C(=O)N3CCC(c4cc(C(F)F)no4)CC3)[C@@H]3CCCNC3)c12 [Example 250, (R)-4-(3-(difluoromethyl)isoxazol-5-yl)-N-(8-methylisoquinolin-1-yl)-N-(piperidin-3-yl)piperidine-1-carboxamide]
67.6 nM | Cc1cn(-c2ccc(C(=O)N(c3nccc4cccc(C)c34)[C@@H]3CCCNC3)c(F)c2)nn1 [Example 251, (R)-2-fluoro-4-(4-methyl-1H-1,2,3-triazol-1-yl)-N-(8-methylisoquinolin-1-yl)-N-(piperidin-3-yl)benzamide]
3550 nM | Cc1cccc2ccnc(N(C(=O)N3CCC(Nc4ncccn4)CC3)[C@@H]3CCCNC3)c12 [Example 208, (R)—N-(8-methylisoquinolin-1-yl)-N-(piperidin-3-yl)-4-(pyrimidin-2-ylamino)piperidine-1-carboxamide]
1350 nM | Cc1cccc2ccnc(N(C(=O)N3CCC(c4cc(C(N)=O)no4)CC3)[C@@H]3CCCNC3)c12 [Example 288, (R)-5-(1-((8-methylisoquinolin-1-yl)(piperidin-3-yl)carbamoyl)piperidin-4-yl)isoxazole-3-carboxamide]
1260 nM | Cc1cccc2ccnc(N(C(=O)N3CCC(c4nc(-c5ccccc5)no4)CC3)[C@@H]3CCCNC3)c12 [Example 263]
2950 nM | Cc1ccnc(N(C(=O)c2ccc(-n3nnc4cccnc43)cc2F)[C@@H]2CCCNC2)c1/C=C/CCO [Example 137, (R,E)-4-(3H-[1,2,3]triazolo[4,5-b]pyridin-3-yl)-2-fluoro-N-(3-(4-hydroxybut-1-en-1-yl)-4-methylpyridin-2-yl)-N-(piperidin-3-yl)benzamide]
9120 nM | CN1CCC(C2CCN(C(=O)N(c3cc4ccccc4cn3)[C@@H]3CCCNC3)CC2)C1 (stereo partly drawn) [Example 256, N-(isoquinolin-3-yl)-4-(1-methylpyrrolidin-3-yl)-N—((R)-piperidin-3-yl)piperidine-1-carboxamide]
195 nM | CCCc1nnn(-c2ccc(C(=O)N(c3nccc4cccc(C)c34)[C@@H]3CCCNC3)c(F)c2)n1 [Example 286, (R)-2-fluoro-N-(8-methylisoquinolin-1-yl)-N-(piperidin-3-yl)-4-(5-propyl-2H-tetrazol-2-yl) benzamide]
2630 nM | Cc1cccc2ccnc(N(C(=O)c3ccc(Nc4nnc(C(F)(F)F)s4)cc3F)[C@@H]3CCCNC3)c12 [Example 281, 2-fluoro-N-(8-methyl-1-isoquinolyl)-N-[(3R)-3-piperidyl]-4-[[5-(trifluoromethyl)-1,3,4-thiadiazol-2-yl]amino] benzamide]
692 nM | O=C(c1ccc(-n2nnc3cccnc32)cc1F)N(c1nccc2sc(/C=C/CO)cc12)[C@@H]1CCCNC1 [Example 158, (R,E)-4-(3H-[1,2,3]triazolo[4,5-b]pyridin-3-yl)-2-fluoro-N-(2-(3-hydroxyprop-1-en-1-yl)thieno[3,2-c]pyridin-4-yl)-N-(piperidin-3-yl)benzamide]
> 10000 nM | Cn1cc(-c2ccc(C(=O)N(c3ncccc3-c3cc[nH]n3)[C@@H]3CCCNC3)cc2)nn1 [Example 101, (R)—N-(3-(1H-pyrazol-3-yl)pyridin-2-yl)-4-(1-methyl-1H-1,2,3-triazol-4-yl)-N-(piperidin-3-yl)benzamide]
1380 nM | N#Cc1ccc2c(N(C(=O)c3ccc(-n4nnc5cccnc54)cc3F)[C@@H]3CCCNC3)nccc2c1 [Example 147, (R)-4-(3H-[1,2,3]triazolo[4,5-b]pyridin-3-yl)-2-fluoro-N-(6-cyanoisoquinolin-1-yl)-N-(piperidin-3-yl)benzamide]
589 nM | Cc1cccc2ccnc(N(C(=O)c3ccc(-c4cccnn4)cc3)[C@@H]3CCCNC3)c12 [Example 237, (R)—N-(8-methylisoquinolin-1-yl)-N-(piperidin-3-yl)-4-(pyridazin-3-yl)benzamide]
1410 nM | Cc1cnc(N(C(=O)c2ccc(-n3nnc4cccnc43)cc2F)[C@@H]2CCCNC2)c2c(C)cccc12 [Example 252, (R)-4-(3H-[1,2,3]triazolo[4,5-b]pyridin-3-yl)-N-(4,8-dimethylisoquinolin-1-yl)-2-fluoro-N-(piperidin-3-yl)benzamide]
1700 nM | Cc1cccc2ccnc(N(C(=O)c3cccc(Cn4nc5cccnc5n4)c3F)[C@@H]3CCCNC3)c12 [Example 273, (R)-3-((2H-[1,2,3]triazolo[4,5-b]pyridin-2-yl)methyl)-2-fluoro-N-(8-methylisoquinolin-1-yl)-N-(piperidin-3-yl)benzamide]
79.4 nM | CCc1nnn(-c2ccc(C(=O)N(c3nccc4cccc(C)c34)[C@@H]3CCCNC3)c(F)c2)n1 [Example 142, (R)-4-(5-ethyl-2H-tetrazol-2-yl)-2-fluoro-N-(8-methylisoquinolin-1-yl)-N-(piperidin-3-yl)benzamide]
107 nM | Cc1cccc2ccnc(N(C(=O)c3ccc(-n4nnc5cccnc54)cn3)[C@@H]3CCCNC3)c12 [Example 244, (R)-5-(3H-[1,2,3]triazolo[4,5-b]pyridin-3-yl)-N-(8-methylisoquinolin-1-yl)-N-(piperidin-3-yl)picolinamide]
2950 nM | Cc1cccc2ccnc(N(C(=O)N3CCC(n4ncc5ccccc54)CC3)[C@@H]3CCCNC3)c12 [Example 266, (R)-4-(1H-indazol-1-yl)-N-(8-methylisoquinolin-1-yl)-N-(piperidin-3-yl)piperidine-1-carboxamide]
3550 nM | Cc1cccc2ccnc(N(C(=O)N3CCC(c4nn(C)c(=O)o4)CC3)[C@@H]3CCCNC3)c12 [Example 174, (R)-4-(4-methyl-5-oxo-4,5-dihydro-1,3,4-oxadiazol-2-yl)-N-(8 methylisoquinolin-1-yl)-N-(piperidin-3-yl)piperidine-1-carboxamide]
537 nM | O=C(c1ccc(-n2nnc3cccnc32)cc1F)N(c1nccc2cccc(/C=C/c3cccnc3)c12)[C@@H]1CCCNC1 [Example 163, (R,E)-4-(3H-[1,2,3]triazolo[4,5-b]pyridin-3-yl)-2-fluoro-N-(piperidin-3-yl)-N-(8-(2-(pyridin-3-yl)vinyl)isoquinolin-1-yl)benzamide]
